Laboratory results as given in ChEMBL document CHEMBL5376003, “Structure-Activity Relationship of FL118 Platform Position 7 Versus Position 9-Derived Compounds and Their Mechanism of Action and Antitumor Activity” (J Med Chem, 2023).
Calls of active or inactive are those of the source. No cut-off for these calls is given here.

Key:
HCT-116 [1] = test: Growth inhibition of human HCT-116 cells incubated for 48 hrs by MTT reagent based ELISA reader analysis; format: functional, cell-based; conditions: HCT-116, 48 h
HCT-116 [2] = test: Induction of apoptosis in human HCT-116 cells assessed as modulation of TOP2B mRNA expression at 10 to 500 nM incubated for 6 to 48 hrs by RNA analysis; format: functional, cell-based; conditions: dose 10-500 nM, time 6-48 hrs
HCT-116 [3] = test: Induction of apoptosis in human HCT-116 cells assessed as modulation of TOP3A mRNA expression at 10 to 500 nM incubated for 6 to 48 hrs by RNA analysis; format: functional, cell-based; conditions: dose 10-500 nM, time 6-48 hrs
HCT-116 [4] = test: Induction of apoptosis in human HCT-116 cells assessed as modulation of DDX49 mRNA expression at 10 to 500 nM incubated for 6 to 48 hrs by RNA analysis; format: functional, cell-based; conditions: dose 10-500 nM, time 6-48 hrs
HCT-116 [5] = test: Induction of apoptosis in human HCT-116 cells assessed as upregulation of ATF3 mRNA expression at 10 to 500 nM incubated for 6 to 48 hrs by RNA analysis; format: functional, cell-based; conditions: dose 10-500 nM, time 6-48 hrs
HCT-116 [6] = test: Induction of apoptosis in human HCT-116 cells assessed as upregulation of BIK mRNA expression at 10 to 500 nM incubated for 6 to 48 hrs by RNA analysis; format: functional, cell-based; conditions: dose 10-500 nM, time 6-48 hrs
HCT-116 [7] = test: Induction of apoptosis in human HCT-116 cells assessed as upregulation of ADCY6 mRNA expression at 10 to 500 nM incubated for 6 to 48 hrs by RNA analysis; format: functional, cell-based; conditions: dose 10-500 nM, time 6-48 hrs
HCT-116 [8] = test: Activation of innate immune response in human HCT-116 cells assessed as upregulation of IRF7 gene expression at 10 to 500 nM incubated for 6 to 48 hrs by RNA analysis; format: functional, cell-based; conditions: dose 10-500 nM, time 6-48 hrs
HCT-116 [9] = test: Induction of apoptosis in human HCT-116 cells assessed as downregulation of PCK2 gene expression at 10 to 500 nM incubated for 6 to 48 hrs by RNA analysis; format: functional, cell-based; conditions: dose 10-500 nM, time 6-48 hrs
HCT-116 [10] = test: Induction of apoptosis in human HCT-116 cells assessed as downregulation of GNPDA2 gene expression at 10 to 500 nM incubated for 6 to 48 hrs by RNA analysis; format: functional, cell-based; conditions: dose 10-500 nM, time 6-48 hrs
HCT-116 [11] = test: Induction of apoptosis in human HCT-116 cells assessed as downregulation of NUP133 gene expression at 10 to 500 nM incubated for 6 to 48 hrs by RNA analysis; format: functional, cell-based; conditions: dose 10-500 nM, time 6-48 hrs
HCT-116 [12] = test: Induction of apoptosis in human HCT-116 cells assessed as downregulation of NUP160 gene expression at 10 to 500 nM incubated for 6 to 48 hrs by RNA analysis; format: functional, cell-based; conditions: dose 10-500 nM, time 6-48 hrs
HCT-116 [13] = test: Induction of apoptosis in human HCT-116 cells assessed as downregulation of CTPS1 gene expression at 10 to 500 nM incubated for 6 to 48 hrs by RNA analysis; format: functional, cell-based; conditions: dose 10-500 nM, time 6-48 hrs
HCT-116 [14] = test: Induction of apoptosis in human HCT-116 cells assessed as downregulation of PPAT gene expression at 10 to 500 nM incubated for 6 to 48 hrs by RNA analysis; format: functional, cell-based; conditions: dose 10-500 nM, time 6-48 hrs
HCT-116 [15] = test: Induction of apoptosis in human HCT-116 cells assessed as downregulation of ADK gene expression at 10 to 500 nM incubated for 6 to 48 hrs by RNA analysis; format: functional, cell-based; conditions: dose 10-500 nM, time 6-48 hrs
HCT-116 [16] = test: Induction of apoptosis in human HCT-116 cells assessed as downregulation of ATIC gene expression at 10 to 500 nM incubated for 6 to 48 hrs by RNA analysis; format: functional, cell-based; conditions: dose 10-500 nM, time 6-48 hrs
[17] = Toxicity in SCID mouse assessed as maximum tolerated dose at po administration; format: organism-based; conditions: in vivo
PDX27454 [18] = test: Antitumor activity against human PDX27454 cells xenografted in SCID mouse model assessed as reduction in tumor volume at 2 mg/kg,po administrated once per week for 3 weeks; format: functional, organism-based
HCT-116 [19] = test: Induction of apoptosis in human HCT-116 cells assessed as downregulation of Survivin protein expression incubated for 48 hrs by Western blotting analysis; format: functional, cell-based
HCT-116 [20] = test: Induction of apoptosis in human HCT-116 cells assessed as downregulation of XIAP protein expression incubated for 48 hrs by Western blotting analysis; format: functional, cell-based
[21] = Toxicity in SCID mouse xenografted with human PDX27454 cells assessed as body weight loss at 8 mg/kg,po administrated once per week for 3 weeks; format: organism-based; conditions: in vivo, 504 h
[22] = Toxicity in SCID mouse xenografted with human PDX27454 cells assessed as body weight loss at 7 mg/kg,po administrated once per week for 4 weeks; format: organism-based; conditions: in vivo, 672 h
[23] = Toxicity in SCID mouse xenografted with human PDX27454 cells assessed as body weight loss at 2.5 to 5 mg/kg,ip administrated once per week for 4 weeks; format: organism-based; conditions: in vivo, 672 h, dose 2.5-5 mg/kg
[24] = Toxicity in SCID mouse xenografted with human PDX27454 cells assessed as body weight loss at 10 mg/kg,po administrated once per week for 4 weeks; format: organism-based; conditions: in vivo, 672 h
[25] = Toxicity in SCID mouse xenografted with human PDX27454 cells assessed as body weight loss at 15 mg/kg,po administrated once per week for 4 weeks; format: organism-based; conditions: in vivo, 672 h
[26] = Toxicity in SCID mouse xenografted with human PDX27454 cells assessed as body weight loss at 15 mg/kg,ip administrated once per week for 4 weeks; format: organism-based; conditions: in vivo, 672 h
HCT-116 [27] = test: Induction of apoptosis in human HCT-116 cells assessed as upregulation of Bax protein expression incubated for 48 hrs by Western blotting analysis; format: functional, cell-based
Cell membrane = test: Induction of mitochondrial membrane potential loss in human HCT-116 cells assessed as ratio of red to green fluorescence intensity at 20 nM incubated for 24 hrs by JC-1 staining based flow cytometry; format: subcellular
HCT-116 [28] = test: Induction of apoptosis in human HCT-116 cells assessed as early apoptotic cells at 5 nM incubated for 48 hrs by Annexin V-FITC/PI staining based flow cytometry assay; format: functional
HCT-116 [29] = test: Induction of apoptosis in human HCT-116 cells assessed as late apoptotic cells at 2.5 nM incubated for 48 hrs by Annexin V-FITC/PI staining based flow cytometry assay; format: functional
HCT-116 [30] = test: Induction of apoptosis in human HCT-116 cells assessed as late apoptotic cells at 5 nM incubated for 48 hrs by Annexin V-FITC/PI staining based flow cytometry assay; format: functional
HCT-116 [31] = test: Induction of apoptosis in human HCT-116 cells assessed as late apoptotic cells at 10 nM incubated for 48 hrs by Annexin V-FITC/PI staining based flow cytometry assay; format: functional
HCT-116 [32] = test: Induction of cell cycle arrest in human HCT-116 cells assessed as accumulation of cells at S phase at 2.5 to 10 nM incubated for 48 hrs by Annexin V-FITC/PI staining based flow cytometry assay; format: functional; conditions: dose 2.5-10 nM
HCT-116 [33] = test: Induction of apoptosis in human HCT-116 cells assessed as upregulation of cytochrome-C protein expression incubated for 48 hrs by Western blotting analysis; format: functional, cell-based
HCT-116 [34] = test: Induction of apoptosis in human HCT-116 cells assessed as upregulation of p21 protein expression incubated for 48 hrs by Western blotting analysis; format: functional, cell-based
PDX27454 [35] = test: Antitumor activity against human PDX27454 cells xenografted in SCID mouse model assessed as reduction in tumor growth at 5 to 15 mg/kg,ip administrated once per week for 4 weeks; format: functional, organism-based; conditions: dose 5-15 mg/kg

| Structure (SMILES) | IC50 (HCT-116 [1]) | Activity (HCT-116 [2]) | Activity (HCT-116 [3]) | Activity (HCT-116 [4]) | Activity (HCT-116 [5]) | Activity (HCT-116 [6]) | Activity (HCT-116 [7]) | Activity (HCT-116 [8]) | Activity (HCT-116 [9]) | Activity (HCT-116 [11]) | Activity (HCT-116 [12]) | Activity (HCT-116 [13]) | Activity (HCT-116 [14]) | Activity (HCT-116 [16]) | Activity (PDX27454 [18]) | Activity (HCT-116 [19]) | Activity (HCT-116 [20]) | further results |
| --- | --- | --- | --- | --- | --- | --- | --- | --- | --- | --- | --- | --- | --- | --- | --- | --- | --- | --- |
| CC[C@@]1(O)C(=O)OCc2c1cc1n(c2=O)Cc2cc3cc4c(cc3nc2-1)OCO4 | 23.5 nM | Active | Active | Active | Active | Active | Active | Active | Active | Active | Active | Active | Active | Active |  |  |  | Activity (HCT-116 [10]): Active; Activity (HCT-116 [15]): Active; MTD [17]: 10 mg/kg |
| CC[C@@]1(O)C(=O)OCc2c1cc1n(c2=O)Cc2c-1nc1cc3c(cc1c2-c1ccc(OC)cc1)OCO3 | 17.7 nM | Active | Active | Active | Active | Active | Active | Active | Active | Active | Active | Active | Active | Active | Active | Active | Active | Activity [21]: 20%; Activity [22]: > 20%; Activity [23]: Toxic |
| CCc1ccc(-c2c3c(nc4cc5c(cc24)OCO5)-c2cc4c(c(=O)n2C3)COC(=O)[C@]4(O)CC)cc1 | 55.6 nM | Active | Active | Active | Active | Active | Active | Active | Active | Active | Active | Active | Active | Active | Active | Active | Active | Activity [24]: Toxic; Activity [25]: Toxic; Activity [26]: Non-Toxic |
| CC[C@@]1(O)C(=O)OCc2c1cc1n(c2=O)Cc2c-1nc1cc3c(cc1c2-c1cc(OC)cc(OC)c1)OCO3 | 99.4 nM | Active | Active | Active | Active | Active |  | Active | Active | Active | Active | Active | Active | Active | Active | Active |  | Activity (HCT-116 [27]): Dose-Dependent Effect; Ratio (Cell membrane): 2.62; Activity (HCT-116 [28]): 26.86%; Activity (HCT-116 [29]): 5.58%; Activity (HCT-116 [30]): 9.79%; Activity (HCT-116 [31]): 10.87%; Activity (HCT-116 [32]): Active; Activity (HCT-116 [33]): Dose-Dependent Effect; Activity (HCT-116 [34]): Dose-Dependent Effect; Activity (PDX27454 [35]): Active |
